Data taken from patent publication US11767303B2, “Compounds and methods for inhibiting viral replication and methods of treating and preventing flaviviral infections” (priority 2020, dated 2023).
“Also recorded” adds a separate entry of the source. Like-named read-outs stand apart in the source and are kept apart here.

Assays:
ZIKV PRVABC59 = test: ZIKV viremia mouse model (A129 mice); assay type: in vivo; conditions: 20 mg/kg/day oral gavage, day 3 post-infection, vs vehicle
Experimental: In vivo protection efficacy. All animal studies involving infectious ZIKV were conducted at an Animal Biosafety Level 2 (ABSL-2) facility at the Wadsworth Center with Institutional Biosafety and Animal Welfare Committee approval.
A group of four-week-old A129 mice were infected by subcutaneous injection with 1.7×10^5 PFU of the PRVABC59 strain. […] Mice were observed daily for signs of illness and mortality. Viremia on day 3 post-infection (pi) was determined by plaque forming assay, and statistical analysis was performed using the unpaired, two-tailed t-test (Prism).
Finally, the in vivo antiviral efficacy was evaluated using a viremia mouse model, as described previously. Zhang et al., “Characterization of the Contemporary Zika Virus in Immunocompetent Mice,” Hum. Vaccines Immunother. 12:3107-3109 (2016) and Larocca et al., “Vaccine Protection Against Zika Virus From Brazil,” Nature 536:474-478 (2016), both of which are hereby incorporated by reference in their entirety.

viral NS3 protease = target: T1, viral NS3 protease (Dengue virus type 2, UniProt P29990); test: Protein thermal shift assay (PTSA); assay type: binding
T1 construct: made in house
Text: Li et al., “Existing Drugs as Broad-Spectrum and Potent Inhibitors for Zika Virus by Targeting NS2B-NS3 Interaction,” Cell Res. 27:1046-1064 (2017), which is hereby incorporated by reference in its entirety.

[1] = Repeated oral dosing toxicity in mice; assay type: in vivo, mouse; conditions: repeated oral dosing 40 mg/kg/day for 7 days
[2] = system: ZIKV strain PRVABC59 or ZIKV-Venus; test: ZIKV infection of 3D mini-brain organoids; assay type: cell-based, Zika virus; conditions: 1.5 μM
Text: Culturing of human iPSCs. Human iPSC F11350.1 culture was maintained in feed-free conditions using mTeSR1 medium (StemCell Technologies #85851) with 5× supplement (StemCell Technologies #85852). Cells were maintained on six-well plates coated with human embryonic stem cell-qualified Matrigel at a 1:60 dilution (Corning Catalog #354277) and passaged with ReLeSR (StemCell Technologies #05872). Cortical 3D organoids were generated based on the protocol described by Yoon et al. Yoon et al., “Reliability of Human Cortical Organoid Generation,” Nat. Methods. […] Briefly, iPSCs were dissociated with accutase (ThermoFisher #A1110501) and then plated at a density of 3×10^6 cells per well in AggreWell 800 24-well plate (StemCell Technologies #34811) in Essential 8™ medium (ThermoFisher #A1517001) supplemented with 10 μM rock inhibitor (Tocris #Y27632). The plate was centrifuged at 100×g for 3 min and incubated at 37° C. overnight. […]
To evaluate if JMX0207 protects organoids from ZIKV infections, a full-length infectious ZIKV clone expressing Venus fluorescent protein (ZIKV-Venus) was first generated. […] ZIKV infection was quantified by a plaque forming unit (PFU) assay at 5 dpi and by fluorescence imaging at 7 dpi, respectively. […]

ZIKV = test: Viral titer reduction assay, ZIKV in A549 cells; assay type: cell-based, Zika virus; conditions: Zika virus
Experimental: Viral Titer Reduction Assay. A viral titer reduction assay was used to determine the compounds' effect on DENV2 and ZIKV strains, as described previously. […] Human A549 lung carcinoma cells and human primary neural progenitor cells were used, as described previously. […] All experiments were performed in triplicates.

[3] = Pharmacokinetics in B6 mice after oral gavage; conditions: B6 mice, single oral dose 40 mg/kg, plasma
Text: Pharmacokinetics. […] Fan et al., “Contributions of Hepatic and Intestinal Metabolism to the Disposition of Niclosamide, a Repurposed Drug with Poor Bioavailability,” Drug Metab. Dispos. 47:756-763 (2019), which is hereby incorporated by reference in its entirety. […] Student's t-test was used. P values<0.05 were considered statistically significant.

T1 sequence (P29990 1476-1659): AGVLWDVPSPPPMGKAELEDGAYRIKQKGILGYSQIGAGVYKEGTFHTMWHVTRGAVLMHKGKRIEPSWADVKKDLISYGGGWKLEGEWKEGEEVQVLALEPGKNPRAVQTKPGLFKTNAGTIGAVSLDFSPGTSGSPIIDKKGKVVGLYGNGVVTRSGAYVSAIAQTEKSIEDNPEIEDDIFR

In the case of O=C(Nc1ccc([N+](=O)[O-])cc1Cl)c1cccc([N+](=O)[O-])c1O [JMX0207, N-(2-Chloro-4-nitrophenyl)-2-hydroxy-3-nitrobenzamide], the ZIKV-induced viremia (ZIKV PRVABC59) is reported as “significant reduction in ZIKV-induced viremia”, the “increase in Tm of the viral protein” value (viral NS3 protease) is reported as 0.75 °C and the sign of toxicity [1] is reported as “did not display any sign of toxicity”. The “ZIKV infection of 3D organoid” value ([2]; MOI 1, imaging/immunostaining) was “completely abolished ZIKV infection; also recorded: nearly completely protected the organoids from ZIKV infection”, the “ZIKV production from 3D organoids” value ([2]; PFU assay at 5 dpi) was “ZIKV production was also significantly inhibited” and the EC50 (ZIKV; A549, read-out: EC50-ZK) was 300 nM. For the same molecule, the EC50 (ZIKV; A549, read-out: EC50-ZK (A549)) was 300 nM, the “AUC0→∞ ± S.D.” value [3] was 2719 ± 1018 and the “Tmax ± S.D.” value [3] was 1.2 ± 0.5 h. For the same molecule, the “T1/2 ± S.D.” value ([3]; 40 mg/kg) was 11 ± 6.8 h and the Cmax ([3]; read-out: Cmax ± S.D.) was 145 µM.
